Measurements taken from ChEMBL document CHEMBL5725933, “Amino compounds for treatment of complement mediated disorders” (2017).

Biological target: Complement factor D (Homo sapiens, UniProt P00746)
Assay: Factor D Assay: Human factor D (purified from human serum, Complement Technology, Inc.) at 80 nM final concentration is incubated with test compound at various concentrations for 5 minutes at room temperature in 50 mM Tris, 1M NaCl, pH 7.5. A synthetic substrate Z-L-Lys-SBz1 and DTNB (Ellman's reagent) are added to final concentrations of 100 μM each. The increase in color is recorded at OD405 nm in a microplate in kinetic mode over 30 minutes with 30 second time points in a spectrofluorimeter. IC50 values are calculated by non-linear regression from the percentage of inhibition of complement factor D activity as a function of test compound concentration.

Complement factor D, sequence (P00746 whole entry): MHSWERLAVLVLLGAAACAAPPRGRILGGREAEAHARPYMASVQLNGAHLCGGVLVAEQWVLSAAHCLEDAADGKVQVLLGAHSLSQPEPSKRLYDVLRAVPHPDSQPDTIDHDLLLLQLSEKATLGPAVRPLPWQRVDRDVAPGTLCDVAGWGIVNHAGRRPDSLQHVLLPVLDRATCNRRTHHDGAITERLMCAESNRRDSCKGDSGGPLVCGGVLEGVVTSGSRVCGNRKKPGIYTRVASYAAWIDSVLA

CC(=O)c1cn(CC(=O)N2C[C@H](F)C[C@H]2C(=O)Nc2cccc(Br)n2)c2ccc(Nc3cncc(F)c3)cc12
IC50: < 1000 nM
